In PubChem BioAssay AID330 (DTP/NCI, 2004) one finds T/C data, which are given here for 26 compounds.

Where “and” joins values, the source holds several entries; their conditions need not be identical. Equal entries are not always repeated. Inconclusive results and toxic doses are left out.

The subject of this experiment is P388 leukemia ip, CD2F1 mice, survival T/C. As to the kind of experiment: NCI In Vivo Anticancer Drug Screen. Data for tumor model P388 Leukemia (intraperitoneal) in CD2F1 (CDF1) mice. The note with it: endpoint: median survival time, higher = longer survival. The method in brief:
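Mice carrying the transplanted tumor received test compound or vehicle. Survival was recorded in each group, and the value is the treated-group measurement divided by that of the vehicle-treated control group.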

The mark [1] stands for this setting: dose: 50.0 mg/kg/injection, schedule: Q01DX005 (ip), vehicle: saline with Tween-80.
Setting [2] is: dose: 100.0 mg/kg/injection, schedule: Q01DX005 (ip), vehicle: saline with Tween-80.
Where [3] appears, read: dose: 200.0 mg/kg/injection, schedule: Q01DX005 (ip), vehicle: saline with Tween-80.
The mark [4] stands for this setting: dose: 50.0 mg/kg/injection, schedule: Q01DX009 (ip), vehicle: Klucel (hydroxypropylcellulose) (HPC).
Setting [5] is: dose: 100.0 mg/kg/injection, schedule: Q01DX009 (ip), vehicle: Klucel (hydroxypropylcellulose) (HPC).
The mark [6] stands for this setting: dose: 200.0 mg/kg/injection, schedule: Q01DX009 (ip), vehicle: Klucel (hydroxypropylcellulose) (HPC).
The mark [7] stands for this setting: dose: 50.0 mg/kg/injection, schedule: Q01DX005 (ip), vehicle: Klucel (hydroxypropylcellulose) (HPC).
The mark [8] stands for this setting: dose: 100.0 mg/kg/injection, schedule: Q01DX005 (ip), vehicle: Klucel (hydroxypropylcellulose) (HPC).
Setting [9] is: dose: 60.0 mg/kg/injection, schedule: Q01DX005 (ip), vehicle: Klucel (hydroxypropylcellulose) (HPC).
The mark [10] stands for this setting: dose: 120.0 mg/kg/injection, schedule: Q01DX005 (ip), vehicle: Klucel (hydroxypropylcellulose) (HPC).
[11] abbreviates: dose: 240.0 mg/kg/injection, schedule: Q01DX005 (ip), vehicle: Klucel (hydroxypropylcellulose) (HPC).
Setting [12] is: dose: 100.0 mg/kg/injection, schedule: Q01DX001 (ip), vehicle: Klucel (hydroxypropylcellulose) (HPC).
The mark [13] stands for this setting: dose: 200.0 mg/kg/injection, schedule: Q01DX001 (ip), vehicle: Klucel (hydroxypropylcellulose) (HPC).
Where [14] appears, read: dose: 400.0 mg/kg/injection, schedule: Q01DX001 (ip), vehicle: Klucel (hydroxypropylcellulose) (HPC).

As to `CC1=Nc2ccccc2OC2(C1)C(C1COC(C)(C)O1)OC1OC(C)(C)OC12` (stereo not given), the T/C is, setting by setting: under setting [1], 99 % of control; under setting [2], 95 % of control; under setting [3], 104 % of control.

Regarding `CCCCCCCCCCCN1CCS(=O)(=O)CC1`, the T/C under setting [4] is 100 % of control, the T/C under setting [5] was 98 % of control and the T/C under setting [6] was 94 % of control.

Consider `COc1ccc(-c2c(S(C)(=O)=O)nsc2S(C)(=O)=O)cc1`, for which the T/C by setting is: under setting [4], 105 % of control; under setting [5], 106 % of control; under setting [6], 97 % of control.

With `CCOc1cc2c(cc1C(C)c1ccccc1)OCO2` (stereo not given), the T/C is 108 % of control under setting [1], 101 % of control under setting [2] and 101 % of control under setting [3].

In the case of `C[n+]1ccc2ccccc2c1C#N`, the T/C was 106 % of control (dose: 12.5 mg/kg/injection, schedule: Q04DX003 (ip), vehicle: saline) and 98 % of control (dose: 25.0 mg/kg/injection, schedule: Q04DX003 (ip), vehicle: saline).

On to `Cc1c(Cl)c(C)c(Cl)c(CCl)c1Cl`, for which the T/C by setting is: (dose: 18.75 mg/kg/injection, schedule: Q04DX003 (ip), vehicle: saline sonified) 95 % of control; (dose: 37.5 mg/kg/injection, schedule: Q04DX003 (ip), vehicle: saline sonified) 109 % of control; (dose: 75.0 mg/kg/injection, schedule: Q04DX003 (ip), vehicle: saline sonified) 109 % of control.

Take `CC1(C)CC2(CC(C)(C)NC(=O)N2)NC(=O)N1`: the T/C under setting [7] was 105 % of control; the T/C under setting [8] is 92 % of control; the T/C (dose: 200.0 mg/kg/injection, schedule: Q01DX005 (ip), vehicle: Klucel (hydroxypropylcellulose) (HPC)) was 100 % of control.

In the case of `O=C1C2=C(Nc3cc([N+](=O)[O-])ccc3N2)OC1c1ccccn1` (stereo not given), the T/C was 119 % of control (dose: 30.0 mg/kg/injection, schedule: Q01DX005 (ip), vehicle: Klucel (hydroxypropylcellulose) (HPC)); 122 % of control under setting [9]; 121 % of control under setting [10].

Turning to `COc1ccc(S(=O)(=O)N/N=C\c2cccc([N+](=O)[O-])c2O)c(OC)c1OC`, the T/C is, setting by setting: under setting [1], 100 % of control; under setting [2], 102 % of control; under setting [3], 96 % of control.

For `CCOc1ccc2nc(SCCl)sc2c1`, the T/C is, setting by setting: (dose: 25.0 mg/kg/injection, schedule: Q01DX009 (ip), vehicle: saline with Tween-80) 101 % of control; (dose: 50.0 mg/kg/injection, schedule: Q01DX009 (ip), vehicle: saline with Tween-80) 99 % of control; (dose: 100.0 mg/kg/injection, schedule: Q01DX009 (ip), vehicle: saline with Tween-80) 91 % of control.

For `COc1ccc(Cc2c3cc(OC)c(OC)cc3cc[n+]2CC(=O)c2ccc(Cl)cc2)cc1OC`, the T/C by setting is: under setting [7], 105 % of control; under setting [8], 111 % of control.

Consider `N=C(N)Sc1cc(O)c(O)c2ccccc12`, for which the T/C was 104 % of control (dose: 6.25 mg/kg/injection, schedule: Q01DX005 (ip), vehicle: saline) and 109 % of control (dose: 12.5 mg/kg/injection, schedule: Q01DX005 (ip), vehicle: saline).

For `Cc1ccc(/C=C/[N+](=O)[O-])cc1`, the T/C was 100 % of control (dose: 6.25 mg/kg/injection, schedule: Q01DX009 (ip), vehicle: saline sonified); 100 % of control (dose: 12.5 mg/kg/injection, schedule: Q01DX009 (ip), vehicle: saline sonified); 100 % of control (dose: 25.0 mg/kg/injection, schedule: Q01DX009 (ip), vehicle: saline sonified).

As for `Cc1cc(C)c2nc(N/N=C/c3cccnc3)sc2c1`, the T/C under setting [4] is 95 % of control, the T/C under setting [5] is 92 % of control and the T/C under setting [6] is 92 % of control.

As to `O=C1C2=C(Nc3ccccc3N2)OC1c1ccccc1O` (stereo not given), the T/C under setting [9] was 98 % of control, the T/C under setting [10] is 91 % of control and the T/C under setting [11] was 91 % of control.

As for `OCC(O)C(O)C(O)C(O)CO` (stereo not given), the T/C runs as follows: (dose: 400.0 mg/kg/injection, schedule: Q01DX009 (ip), vehicle: saline) 107 % of control; (dose: 1200.0 mg/kg/injection, schedule: Q01DX009 (ip), vehicle: saline) 110 % of control; (dose: 1600.0 mg/kg/injection, schedule: Q01DX005 (ip), vehicle: saline) 106 % of control; (dose: 2400.0 mg/kg/injection, schedule: Q01DX005 (ip), vehicle: saline) 104 % of control.

Regarding `Clc1ccc2[nH]c3c(c2c1)CCCC3`, the T/C (dose: 200.0 mg/kg/injection, schedule: Q04DX003 (ip), vehicle: saline with Tween-80) is 94 % of control.

Take `CC(=O)Oc1ccc(C(O)CN(C)OC(C)=O)cc1OC(C)=O` (stereo not given): the T/C was 100 % of control (dose: 12.5 mg/kg/injection, schedule: Q01DX005 (ip), vehicle: Klucel + Tween-80); 101 % of control (dose: 25.0 mg/kg/injection, schedule: Q01DX005 (ip), vehicle: Klucel + Tween-80); 101 % of control and 92 % of control (dose: 50.0 mg/kg/injection, schedule: Q01DX005 (ip), vehicle: Klucel + Tween-80).

`C=C(C)C(Br)=C(C)C`: the T/C is, setting by setting: (dose: 12.5 mg/kg/injection, schedule: Q01DX001 (ip), vehicle: saline with Tween-80) 108 % of control; (dose: 25.0 mg/kg/injection, schedule: Q01DX001 (ip), vehicle: saline with Tween-80) 107 % of control; (dose: 50.0 mg/kg/injection, schedule: Q01DX001 (ip), vehicle: saline with Tween-80) 99 % of control.

On to `CCC(C)Sc1nc2ccc(NC(=O)/C=C/C(=O)O)cc2s1` (stereo not given), for which the T/C (dose: 100.0 mg/kg/injection, schedule: Q04DX003 (ip), vehicle: Klucel (hydroxypropylcellulose) (HPC)) is 95 % of control and the T/C (dose: 200.0 mg/kg/injection, schedule: Q04DX003 (ip), vehicle: Klucel (hydroxypropylcellulose) (HPC)) is 100 % of control.

In the case of `CCCCCN(CCCCC)CC(O)c1c(OC)ccc2ccccc12` (stereo not given), the T/C by setting is: (dose: 12.5 mg/kg/injection, schedule: Q01DX009 (ip), vehicle: Klucel (hydroxypropylcellulose) (HPC)) 102 % of control; (dose: 25.0 mg/kg/injection, schedule: Q01DX009 (ip), vehicle: Klucel (hydroxypropylcellulose) (HPC)) 103 % of control; under setting [4], 94 % of control.

Take `C/C=C1/C[N+]2([O-])CC[C@@]34c5ccc(OC)cc5N(C)[C@H]3C2CC1C4C(=O)OC` (stereo not given in full): the T/C is 96 % of control (dose: 2.5 mg/kg/injection, schedule: Q01DX005 (ip), vehicle: Klucel + Tween-80); 97 % of control (dose: 5.0 mg/kg/injection, schedule: Q01DX005 (ip), vehicle: Klucel + Tween-80); 98 % of control (dose: 10.0 mg/kg/injection, schedule: Q01DX005 (ip), vehicle: Klucel + Tween-80); 98 % of control (dose: 20.0 mg/kg/injection, schedule: Q01DX005 (ip), vehicle: Klucel + Tween-80).

With `c1ccc(CNc2ccnc3c2ccc2ccccc23)cc1`, the T/C was 100 % of control under setting [12], 97 % of control under setting [13] and 100 % of control under setting [14].

`CCOc1cc2c(cc1Cc1cc(OC)c(OC)c(OC)c1)OCO2`: the T/C was 91 % of control under setting [9], 98 % of control under setting [10] and 86 % of control under setting [11].

With `O=C(O)C1SCSC1C(=O)O` (stereo not given), the T/C is 94 % of control (dose: 25.0 mg/kg/injection, schedule: Q01DX009 (ip), vehicle: other); 100 % of control (dose: 50.0 mg/kg/injection, schedule: Q01DX009 (ip), vehicle: other); 90 % of control (dose: 100.0 mg/kg/injection, schedule: Q01DX009 (ip), vehicle: other); 98 % of control (dose: 200.0 mg/kg/injection, schedule: Q01DX009 (ip), vehicle: other).

`CN1C(=O)/C(=c2\sc3nc4ccccc4n3c2=O)c2cc(Br)ccc21`: the T/C runs as follows: under setting [12], 99 % of control; under setting [13], 99 % of control; under setting [14], 101 % of control.
